Source: US4942170A, “2-(substituted methylidene)-N-[3-[piperidin-1-yl]propyl]hydrazine carboximidamides useful as antiparasitics” (The Rockefeller University, priority 1988, dated 1990)
Where a name gives a salt, the structure may show the parent alone. Read-outs that look alike come from different tables or passages of the source.

How the values were obtained:
[1] = test system: Trypanosoma cruzi Strain Y trypomastigotes; test: Trypanocidal assay: trypomastigotes pre-incubated with test compound, then added to HSVSM cell culture; assay type: cell-based; conditions: for percent of cells infected relative to untreated control at 0.5 µM / percent of cells infected relative to untreated control at 1 µM / percent of cells infected relative to untreated control at 5 µM / percent of cells infected relative to untreated control at 10 µM: Trypanosoma cruzi, read-out: percentage of cells infected by pre-treated trypomastigotes relative to untreated controls
Experimental: (§1) Human saphenous vein smooth muscle (HSVSM) cells are isolated from outgrowths of explants of unused portions of veins harvested for coronary artery bypass surgery as described previously by Warner et al., J. Exp. Med., 165, 1316-1331 (1987). The cells are maintained in DME medium containing 5.5 mM glucose, 25 mM HEPES and 10% FBS (Hy-Clone Laboratories,Logan, Utah). Trypanosoma cruzi Strain Y trypomastigotes are propagated as described previously by Libby et al., J. Clin. Invest., 77, 127-135 (1986), except that HSVSM cells are used in place of bovine aortic smooth muscle cells.
Test compounds are dissolved in 0.3 ml DMSO and brought to volume by dilution with serum-free DME medium. Solutions are sterilized by filtration through 0.22 μm filter units. Trypomastigotes (10^7 ml^-1) are harvested and washed twice in serum-free DME medium. Parasites are added to solutions of the test compounds to a final concentration of 10^6 ml^-1 and incubated for 3 hours at 37° C. in a 5% CO2 atmosphere. After incubation with the test compound, 0.1 ml of the parasite suspension (10^5 organisms) is diluted with 0.4 ml cell culture medium and added to a culture of HSVSM cells. After 16 hours, the HSVSM cells are washed to remove non-internalized trypomastigotes and resupplied with fresh culture medium. Infections are followed for 4-7 days by light microscopy.
Trypomastigotes were pre-incubated with a test compound or a prior art compound as described above. Results are expressed as the percentage of cells infected by pre-treated trypomastigotes relative to untreated controls.

trypomastigotes = test: Ongoing infection model in human smooth muscle cells infected with trypomastigotes; assay type: cell-based, Trypanosoma cruzi; conditions: compound incubated 16 hours, counted 5 days after initial infection, untreated 1.85 × 10^7
Experimental: as §1
The effects of the compounds of the present invention have also been tested in an ongoing infection model. […] The cells are then incubated for 48 hours after which time the test compounds are added to the cultures and incubated for 16 hours. After 16 hours, the treated culture media is replaced with drug-free fresh media and cell culture is continued for a further 24 hours. Levels of parasitemia in the treated and untreated cultures are then examined.
*Number of trypomastigotes/ml counted swimming above the HSVM cell
monolayer 5 days after initial infection.

trypanothione reductase = trypanothione reductase (Crithidia fasciculata, UniProt P39040); test: Incubation of trypanothione reductase with compound under aerobic and anaerobic conditions, dialysis, then T(S)2 reductase assay; assay type: biochemical, C. fasciculata; conditions: 0.277778 h, pH 7.8, read-out: loss of T(S)2 reductase activity relative to the aerobic control
Experimental: (§2) Trypanothione disulfide reductase activity is assayed spectrophotometrically by monitoring substrate-dependent oxidation of NADPH at 340 nm. Alternatively, enzyme activity is monitored by coupling radical formation to cytochrome C reduction and measuring absorbance changes (ε550 =21 mM^-1). Absorbance changes are monitored on a spectrophotometer with a thermostated cuvette chamber. Enzyme concentration is measured spectrophotometrically using the extinction coefficient (ε464 =11.3 mM^-1, Shames et al., Biochemistry, 25, 3519-3526 (1986). Kinetic runs are carried out at 27° C. in 0.1M 4-(2-hydroxyethyl)1-piperazineethane sulfonic acid (HEPES) buffer, pH 7.8, containing 0.1 mM EDTA and 0.25 mM NADPH. Anaerobic measurements are performed in rubber stoppered cuvettes that have been flushed repeatedly with helium. All buffers and solutions used in the assays are treated in this manner. Additions to the cuvette are made with a microsyringe piercing the septum.
Assays are carried out in 0.1M HEPES, pH 7.8, containing 1 mM EDTA, 0.15 mM […], 500 pmoles/ml trypanothione reductase and 10 μM nitrofuran VIII. Reactions are started by addition of enzyme (80 μl to a 2 ml assay). Sequential spectra (200-800 nm) are collected at 20 sec intervals using a UV/Vis spectrophotometer. At the end of the experiment, the assay mixtures are dialyzed and trypanothione reductase is assayed using 250 μM T(S)2. […]

[2] = biological target: trypanothione reductase from C. fasciculata (Crithidia fasciculata, UniProt P39040); test: Enzymatic reduction of compounds as substrates of trypanothione reductase (NADPH oxidation, cytochrome C coupled assay); assay type: biochemical; conditions: aerobic
Experimental: FIG. 2 is a graph of the results of the enzymatic reduction of compounds C, D and E of the present invention and comparative prior art compounds as a function of substrate concentration. Relative rates were measured under aerobic conditions by coupling superoxide production to cytochrome C reduction as described.
as §2, with “septum. […]” for “septum.”

[3] = 0.5 μM, 3 hours pre-incubation at 37° C., HSVSM cells
[4] = 1 μM, 3 hours pre-incubation at 37° C., HSVSM cells
[5] = 5 μM, 3 hours pre-incubation at 37° C., HSVSM cells
[6] = 10 μM, 3 hours pre-incubation at 37° C., HSVSM cells

Sequence of trypanothione reductase from C. fasciculata (P39040 whole entry): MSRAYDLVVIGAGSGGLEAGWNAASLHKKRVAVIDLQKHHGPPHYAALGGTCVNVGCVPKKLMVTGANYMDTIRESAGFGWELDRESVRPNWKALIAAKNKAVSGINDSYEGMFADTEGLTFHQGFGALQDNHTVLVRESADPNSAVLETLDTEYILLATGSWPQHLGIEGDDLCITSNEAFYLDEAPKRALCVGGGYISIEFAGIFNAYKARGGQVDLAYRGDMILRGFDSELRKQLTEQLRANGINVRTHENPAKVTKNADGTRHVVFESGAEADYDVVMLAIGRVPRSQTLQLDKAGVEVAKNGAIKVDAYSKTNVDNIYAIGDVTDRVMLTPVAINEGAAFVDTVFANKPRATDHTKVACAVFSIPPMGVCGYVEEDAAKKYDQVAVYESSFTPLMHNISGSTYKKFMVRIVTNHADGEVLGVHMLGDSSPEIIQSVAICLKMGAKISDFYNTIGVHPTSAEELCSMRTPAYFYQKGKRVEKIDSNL
Sequence of trypanothione reductase (P39040 whole entry): as above

| Molecule | Trypomastigotes/ml counted swimming above the HSVM cell monolayer (trypomastigotes; 1 μM) | Trypomastigotes/ml counted swimming above the HSVM cell monolayer (trypomastigotes; 10 μM) | percent of cells infected relative to untreated control at 0.5 µM ([1]; 3 h) | percent of cells infected relative to untreated control at 1 µM ([1]; 3 h) | percent of cells infected relative to untreated control at 5 µM ([1]; 3 h) | percent of cells infected relative to untreated control at 10 µM ([1]; 3 h) | further results |
| --- | --- | --- | --- | --- | --- | --- | --- |
| 2-(5-Nitro-2-furanylmethylidene)-N-[3-(4-methylpiperidin-1-yl)propyl]hydrazinecarboximidamide trihydrobromide [Compound D] | 1.80 × 10^7 Trypomastigotes/ml | < 2.00 × 10^4 Trypomastigotes/ml | – | – | – | – | percentage of cells infected by pre-treated trypomastigotes relative to untreated controls [1, 3]: 64%; percentage of cells infected by pre-treated trypomastigotes relative to untreated controls [1, 4]: 35%; percentage of cells infected by pre-treated trypomastigotes relative to untreated controls [1, 5]: 0%; percentage of cells infected by pre-treated trypomastigotes relative to untreated controls [1, 6]: 0% |
| CC(CCC1=C(CCC(C)=NNC(=N)N)C(=O)c2ccccc2C1=O)=NNC(=N)N.Cl.Cl [Compound A, 2,3-Bis(3-(2-amidinohydrazono)butyl)-1,4-naphthoquinone dihydrochloride] | 4.10 × 10^7 Trypomastigotes/ml | 1.35 × 10^7 Trypomastigotes/ml | – | – | – | – | percent of cells infected relative to untreated control at 0.5 µM [1, 3]: 14%; percent of cells infected relative to untreated control at 1 µM [1, 4]: 0%; percent of cells infected relative to untreated control at 5 µM [1, 5]: 0%; percent of cells infected relative to untreated control at 10 µM [1, 6]: 0% |
| CC(CCC1=C(C)C(=O)c2ccccc2C1=O)=NNC(=N)N [Compound B, hydrochloride] | – | – | – | – | – | – | percent of cells infected relative to untreated control at 0.5 µM [1, 3]: 100%; percent of cells infected relative to untreated control at 1 µM [1, 4]: 100%; percent of cells infected relative to untreated control at 5 µM [1, 5]: 21%; percent of cells infected relative to untreated control at 10 µM [1, 6]: 8% |
| N=C(NCCCN1CCN(CCCNC(=N)NN=Cc2ccc([N+](=O)[O-])o2)CC1)NN=Cc1ccc([N+](=O)[O-])o1 [Compound E, 2,2'-Bis(5-nitro-2-furanylmethylidene)-N,N'-[1,4-piperazinediylbis(3,1-propanediyl)]-bishydrazinecarboximidamide tetrahydrobromide] | 1.85 × 10^7 Trypomastigotes/ml | 2.85 × 10^7 Trypomastigotes/ml | 100% | 0% | 0% | 0% | inhibition at 10 µM (trypanothione reductase): 93% |
| N=C(N)NN=Cc1ccc([N+](=O)[O-])o1 [Guanofuracin, reference compound] | – | – | 100% | 45% | 0% | 0% | – |
| CC1CS(=O)(=O)CCN1/N=C/c1ccc([N+](=O)[O-])o1 (stereo not drawn) [Nifurtimox, reference compound] | – | – | 100% | 100% | 10% | 4% | trypanothione reductase-catalyzed reduction monitored by NADPH oxidation [2]: could be detected |
| NC(=O)N/N=C/c1ccc([N+](=O)[O-])o1 [nitrofurazone] | – | – | – | – | – | – | trypanothione reductase-catalyzed reduction monitored by NADPH oxidation [2]: could be detected |
